Measurements from ChEMBL document CHEMBL1201862, “PubChem BioAssay data set” (2004).
“And” between values parts separate entries of the source, which are not always exact repeats. Equal values may be shown once.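 These data come from cells grown in 96-well plates and exposed to compound for 48 hours at five concentrations. At the GI50, growth is halved.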 The source made the active and inactive calls. Rule as the data show it: active = GI50 up to about 1.1 µM and inactive = higher.

Tests used:
Experiment in all cases: inhibition of tumour cell growth, NCI panel, 48 h
CAKI-1 = system: CAKI-1
MDA-MB-435 = system: MDA-MB-435
CCRF-CEM = system: CCRF-CEM
SK-MEL-2 = system: SK-MEL-2
OVCAR-8 = system: OVCAR-8
COLO 205 = system: COLO 205
HCT-15 = system: HCT-15
Malme-3M = system: Malme-3M
SK-MEL-28 = system: SK-MEL-28
HOP-92 = system: HOP-92
NCI-H522 = system: NCI-H522
HT-29 = system: HT-29
SW-620 = system: SW-620
OVCAR-3 = system: OVCAR-3
SF-268 = system: SF-268
SF-539 = system: SF-539
HOP-62 = system: HOP-62
U-251 = system: U-251
HCC 2998 = system: HCC 2998

Row | Compound | GI50 (CAKI-1) | GI50 (MDA-MB-435) | GI50 (CCRF-CEM) | GI50 (SK-MEL-2) | GI50 (OVCAR-8) | GI50 (COLO 205) | GI50 (HCT-15) | GI50 (Malme-3M) | GI50 (SK-MEL-28) | GI50 (HOP-92) | GI50 (NCI-H522) | GI50 (HT-29) | GI50 (SW-620) | GI50 (OVCAR-3) | GI50 (SF-268) | GI50 (SF-539) | GI50 (HOP-62) | GI50 (U-251) | GI50 (HCC 2998)
1 | CC(=O)Oc1ccc2c(c1OC(C)=O)CCC1C2=CC[C@]2(C)C(=O)CCC12 (stereo partly specified) | 6.07 µM (inactive) | 4.45 µM (inactive) | 3.37 µM (inactive) | 15.1 µM (inactive) | 14.3 µM (inactive) | 14.5 µM (inactive) | 10.6 µM | 13.8 µM (inactive) | 9.12 µM (inactive) | 5.15 µM (inactive) | 1.82 µM (inactive) | 17.6 µM (inactive) | 3.18 µM (inactive) | 2.44 µM (inactive) | 12.1 µM (inactive) | 14.2 µM (inactive) | 19.7 µM (inactive) |  | 
2 | O=C1CS(=O)(=O)C(c2cccc(Oc3ccccc3)c2)N1c1cc(Cl)ccc1Cl (stereo unspecified) |  | 12.1 µM (inactive) | 15.4 µM (inactive) | 14.4 µM (inactive) | 19.8 µM (inactive) | 30.2 µM (inactive) | 24.9 µM | 47 µM (inactive) | 26.5 µM (inactive) | 18.2 µM (inactive) | 23.7 µM (inactive) | 20 µM (inactive) | 34.4 µM (inactive) | 19 µM (inactive) | 23.1 µM (inactive) | 21 µM (inactive) |  | 15.7 µM (inactive) | 18.8 µM (inactive)
3 | CCN(CC)CCOC(c1cc(OC)ccc1OC)c1ccc2n1-c1ccccc1OC2 (stereo unspecified) | 14.9 µM (inactive) | 10.5 µM (inactive) | 3.25 µM (inactive) | 13.1 µM (inactive) | 13.2 µM (inactive) | 5.42 µM (inactive) | 11.5 µM | 18.5 µM (inactive) | 15 µM (inactive) | 1.89 µM (inactive) | 15.2 µM (inactive) | 3.41 µM (inactive) | 8.85 µM (inactive) | 15.7 µM (inactive) | 14.5 µM (inactive) |  | 16.4 µM (inactive) | 14.9 µM (inactive) | 5.31 µM (inactive)
4 | COC(=O)C(=O)C(C(=O)C(=O)Nc1ccccc1C(=O)OC)c1nc2ccc(C(=O)c3ccccc3)cc2nc1O (stereo unspecified) | 30.5 µM (inactive) | 38.9 µM (inactive) |  | > 100 µM (inactive) | 39.4 µM (inactive) |  | 46.8 µM | 76.9 µM (inactive) | 90.2 µM (inactive) | > 100 µM (inactive) | 24.1 µM (inactive) | 41.1 µM (inactive) | 50 µM (inactive) | > 100 µM (inactive) | 56.9 µM (inactive) | > 100 µM (inactive) | 55 µM (inactive) | > 100 µM (inactive) | 
5 | CC(=O)NC1C(CO)O[C@@H]2OC(C)(C)O[C@H]12 (stereo partly specified) | > 100 µM (inactive) | > 100 µM (inactive) | > 100 µM (inactive) | > 100 µM (inactive) | > 100 µM (inactive) |  | > 100 µM | > 100 µM (inactive) | > 100 µM (inactive) | > 100 µM (inactive) | > 100 µM (inactive) | > 100 µM (inactive) | > 100 µM (inactive) | > 100 µM (inactive) | > 100 µM (inactive) | > 100 µM (inactive) | > 100 µM (inactive) | > 100 µM (inactive) | > 100 µM (inactive)
6 | C=C1C(=O)O[C@H]2C1C[C@H](O)/C(C)=C/CC[C@@]1(C)O[C@H]21 (stereo partly specified) | 14.5 µM (inactive) | 17.8 µM (inactive) | 3.04 µM (inactive) | 15.2 µM (inactive) | 18 µM (inactive) | 0.782 µM (active) | 12.2 µM | 6.14 µM (inactive) | 23.8 µM (inactive) | 17.3 µM (inactive) | 1.69 µM (inactive) | 23.3 µM (inactive) | 2.09 µM (inactive) |  | 29.4 µM (inactive) |  | 33.7 µM (inactive) | > 100 µM (inactive) | 14.4 µM (inactive)
7 | C=C(Cl)C(=C)CCC(Cl)C(C)(C)Cl (stereo unspecified) | > 100 µM (inactive) | > 100 µM (inactive) | > 100 µM (inactive) | > 100 µM (inactive) |  | > 100 µM (inactive) |  | > 100 µM (inactive) | > 100 µM (inactive) | > 100 µM (inactive) | > 100 µM (inactive) | > 100 µM (inactive) | > 100 µM (inactive) | > 100 µM (inactive) | > 100 µM (inactive) | > 100 µM (inactive) | > 100 µM (inactive) | > 100 µM (inactive) | > 100 µM (inactive)
8 | COCn1c2ccc(OC(C)=O)cc2c2c(=O)oc(C)nc21 | 57.7 µM (inactive) | > 100 µM (inactive) | > 100 µM (inactive) | > 100 µM (inactive) | > 100 µM (inactive) | > 100 µM (inactive) | > 100 µM | > 100 µM (inactive) | > 100 µM (inactive) | > 100 µM (inactive) | > 100 µM (inactive) | 0.497 µM (active) | > 100 µM (inactive) |  | > 100 µM (inactive) | > 100 µM (inactive) | > 100 µM (inactive) | > 100 µM (inactive) | > 100 µM (inactive)
9 | O=C(CC(C(=O)c1ccco1)c1cccs1)c1cccs1 (stereo unspecified) | > 100 µM (inactive) | 35.9 µM (inactive) |  | 37.4 µM (inactive) | 44.7 µM (inactive) | 51.9 µM (inactive) | 50.2 µM | 96.2 µM (inactive) | 42.7 µM (inactive) | 59.4 µM (inactive) | 41.9 µM (inactive) | 37.9 µM (inactive) | 94.8 µM (inactive) | 40.7 µM (inactive) | 57.9 µM (inactive) | > 100 µM (inactive) | 87.7 µM (inactive) | 67.5 µM (inactive) | 49.2 µM (inactive)
10 | COC(=O)[C@H](Cc1ccccc1)NC(=O)[C@H](Cc1ccccc1)NC(=O)CN1C(=O)[C@@H]2C3C=CC(C3)[C@@H]2C1=O | 16.7 µM (inactive) and 18.6 µM (inactive) | 15.3 µM (inactive) and 17.3 µM (inactive) |  | 18.2 µM (inactive) and 17.9 µM (inactive) | 14.8 µM (inactive) and 19.6 µM (inactive) | 17.1 µM (inactive) and 15.8 µM (inactive) | 15.6 µM and 17.4 µM |  | 19.3 µM (inactive) and 18.1 µM (inactive) | 18.3 µM (inactive) and 20.6 µM (inactive) | 16 µM (inactive) and 14.1 µM (inactive) | 19.2 µM (inactive) and 20 µM (inactive) | 16.5 µM (inactive) and 20.9 µM (inactive) | 16.6 µM (inactive) and 18 µM (inactive) | 13.2 µM (inactive) and 17.7 µM (inactive) | 18.7 µM (inactive) and 17.9 µM (inactive) | 19.7 µM (inactive) and 18.7 µM (inactive) | 16.4 µM (inactive) and 17.6 µM (inactive) | 17.3 µM (inactive) and 16.7 µM (inactive)
11 | O=CN1CCN(C(=O)c2ccco2)C1=S | 5.38 µM (inactive) | 5.13 µM (inactive) | 3.7 µM (inactive) | 17.2 µM (inactive) | 16 µM (inactive) | 10.1 µM (inactive) | 7.83 µM | 11.3 µM (inactive) | 15.9 µM (inactive) | 4.12 µM (inactive) | 3.67 µM (inactive) | 11.3 µM (inactive) | 5.82 µM (inactive) | 4.39 µM (inactive) | 7.05 µM (inactive) | 4.38 µM (inactive) | 13.2 µM (inactive) | 13.9 µM (inactive) | 
